Type in all cases: in vivo
One assay deals with Heliothis virescens. In words: whole plant or invertebrate. The note with it: in Gossypium hirsutum, 72 h, read-out: grading of mortality, HV. Put shortly:
(§1)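 Compound dissolved in acetone, diluted with water containing 0.01% wetting agent to 500, 250 or 100 ppm. Pests on host plant or food; pests and/or medium treated. Mortality scored 1–3 days later, graded A (80–100%; 70–100% for S. exigua), B (50–79%; 50–69%), C (<50%).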

For the next assay, the system named is Tetranychus urticae. In words: Insecticidal/acaricidal test, Tetranychus urticae (spider mites - adult), contact. The conditions noted are these: 72 h, French bean leaf, 3 days, read-out: grading of mortality, TU. A digest of the protocol:
as §1

The next assay concerns Diabrotica balteata. As to the kind of experiment: Insecticidal test, Diabrotica balteata (rootworm larvae), residual. The conditions noted are these: 72 h, filter paper/maize seed, 3 days, read-out: grading of mortality, DB. Put shortly:
as §1

The next assay concerns Spodoptera exigua. In words: Insecticidal test, Spodoptera exigua (lesser armyworm), residual. The note with it: 72 h, 500 ppm, cotton leaf, 3 days, read-out: grading of mortality, SE. As to the method: The activity of the Product was determined using a variety of insect and acarine pests. The Product was used in the form of liquid preparations containing 500, 250 or 100 parts per million (ppm) by weight of the Product. The preparations were made by dissolving the Product in acetone and diluting the solutions with water containing 0.01% by weight of a wetting agent sold under the trade name "LISSAPOL" NX until the liquid preparations contained the required concentratio of the Product. "Lissapol" is a Registered Trade Mark.
The test procedure adopted with regard to each pest was basically the same and comprised supporting a number of the pests on a medium which was usually a host plant or a foodstuff on which the pests feed, and treating either or both the pests and the medium with the preparations. The mortality of the pests was then assessed at periods usually varying from one to three days after the treatment.
The results of the tests are given in Table IV for each of the Products, at the rate in parts per million given in the second column as a grading of mortality designated as A, B or C wherein A indicates 80-100% mortality or knockdown (70-100% in the case of Spodoptera exigua), B indicates 50-79% mortality or knockdown (50-69% in the case of Spodoptera exigua) and C indicates less than 50% mortality or knockdown.
In Table IV the pest organism used is designated by a letter code and the pest species, the support medium or food, and the type and duration of test is given in Table III.

The subject of another assay is Nilaparvata lugens. In words: Insecticidal test, Nilaparvata lugens (brown planthopper), contact. The conditions noted are these: 72 h, Cabbage leaf, 3 days, read-out: grading of mortality, NL. Put shortly: as §1
Assay [1] deals with Musca domestica. In words: Knockdown test, Musca domestica (houseflies - adults). The note with it: cotton wool/sugar, 4 hours, read-out: grading of knockdown, MD/KD. Put shortly:
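Adult houseflies were exposed to the compound as aqueous acetone preparations with 0.01% Lissapol NX wetting agent, at 500, 250 or 100 ppm. Knockdown was graded A (80–100%), B (50–79%) or C (<50%).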

In another assay the test system is Blattella germanica. In words: Insecticidal test, Blattella germanica (cockroach nymphs), residual. The conditions noted are these: 72 h, plastic pot, 3 days, read-out: grading of mortality, BG. A digest of the protocol:
as §1

The subject of the next assay is Myzus persicae. As to the kind of experiment: Insecticidal test, Myzus persicae (aphids), contact. The note with it: 72 h, Chinese Cabbage leaf, 3 days, read-out: grading of mortality, MP. A digest of the protocol: as §1
The subject of assay [2] is Musca domestica. As to the kind of experiment: Insecticidal test, Musca domestica (houseflies - adults), contact. The conditions noted are these: 24 h, cotton wool/sugar, 1 day, read-out: grading of mortality, MD. Put shortly: as §1

Molecules are shown by their SMILES. Where only a bound is given, the exact number is not on record here.

This passage reports mortality and pest or weed control results from patent publication US5225607A, “Insecticidal ethers” (Imperial Chemical Industries PLC, priority 1985, dated 1993).

Turning to `FC(F)(F)C(Cl)(COCc1cccc(Oc2ccc(Cl)cc2)c1)c1ccc2c(c1)OCO2` (centres unmarked) [Compound 65, 1,1,1-Trifluoro-2-chloro-2-(3,4-methylenedioxyphenyl)-3-(3-(4-chlorophenoxy)-benzyloxy)propane], the mortality (in general, the share of the test organisms that died) at 500 ppm was 80 to 100% in the assay with Heliothis virescens; less than 50% with Tetranychus urticae; less than 50% in the assay with Diabrotica balteata; 50 to 69% with Spodoptera exigua; less than 50% with Nilaparvata lugens; 80 to 100% with Blattella germanica. The mortality at 500 ppm in the assay with Myzus persicae and in the assay on Musca domestica [2] was less than 50% in each case. Further, the pest or weed control at 500 ppm with Musca domestica [1] is less than 50%.
For the compound `OC(COCc1cccc(Oc2ccccc2)c1)(c1ccc2c(c1)OCO2)C(F)(F)F` (centres unmarked) [Compound 128, 1,1,1-trifluoro-2-(3,4-methylenedioxyphenyl)-3-(3-phenoxybenzyloxy)propan-2-ol], the mortality at 500 ppm in the assay on Heliothis virescens was 80 to 100%; with Tetranychus urticae, less than 50%; in the assay with Diabrotica balteata it was 50 to 79%; in the assay on Spodoptera exigua, 70 to 100%; in the assay with Nilaparvata lugens, less than 50%; in the assay with Blattella germanica, less than 50%. Also, the mortality at 500 ppm with Myzus persicae was less than 50%; in the assay with Musca domestica [2], 50 to 79%. In addition, the pest or weed control at 500 ppm with Musca domestica [1] was less than 50%.
Turning to `CCOc1ccc(C(COCc2ccc(F)c(Cc3ccccc3)c2)C(F)(F)F)cc1` (centres unmarked) [Compound 8], the mortality at 500 ppm is 80 to 100% in the assay on Heliothis virescens; less than 50% with Tetranychus urticae; 80 to 100% in the assay on Diabrotica balteata; 70 to 100% with Spodoptera exigua; 80 to 100% in the assay on Nilaparvata lugens; 80 to 100% in the assay on Blattella germanica. The mortality at 500 ppm in the assay with Myzus persicae and in the assay with Musca domestica [2] was 80 to 100% throughout. In the assay with Musca domestica [1], the pest or weed control at 500 ppm was in the range of 80 to 100%.
`Cc1ccc(C(COCc2cccc(Oc3ccccc3)c2)C(F)(F)F)cc1` (centres unmarked) [Compound 22, 1,1,1-Trifluoro-2-(4-methylphenyl)-3-(3-phenoxybenzyloxy)propane]: the mortality at 500 ppm in the assay on Heliothis virescens is 50 to 79%; with Tetranychus urticae it was less than 50%; with Diabrotica balteata, 80 to 100%; in the assay on Spodoptera exigua, 70 to 100%; in the assay on Nilaparvata lugens, 80 to 100%; in the assay with Blattella germanica it was 80 to 100%. Also, in the assay with Musca domestica [2], the mortality at 500 ppm was 80 to 100%. Further, the pest or weed control at 500 ppm with Musca domestica [1] lay in the range of 80 to 100%.
As to `CCOc1ccc(C(COC(c2cccc(Oc3ccccc3)c2)C(F)(F)F)C(F)(F)F)cc1` (racemic) [Compound 264], the mortality at 500 ppm with Heliothis virescens was less than 50%; with Tetranychus urticae, 50 to 79%; with Diabrotica balteata it was less than 50%; in the assay with Spodoptera exigua it was 70 to 100%; with Blattella germanica, less than 50%; with Myzus persicae, less than 50%. Also, in the assay with Musca domestica [2], the mortality at 500 ppm was less than 50%. For the same compound, in the assay on Musca domestica [1], the pest or weed control at 500 ppm was less than 50%.
Regarding `CCCc1ccc(C(=COCc2ccc(F)c(Oc3ccccc3)c2)C(F)(F)F)cc1` [Compound 460, 1,1,1-trifluoro-2-(4-n-propylphenyl)-3-(3-phenoxy-4-fluorobenzyloxy)prop-2-ene], the mortality at 500 ppm in the assay with Heliothis virescens was less than 50%; in the assay on Tetranychus urticae, less than 50%; with Diabrotica balteata it was 50 to 79%; with Nilaparvata lugens, 50 to 79%; in the assay on Blattella germanica, 80 to 100%; in the assay on Myzus persicae it was less than 50%. Also, the mortality at 500 ppm in the assay on Musca domestica [2] is less than 50%. In the assay on Musca domestica [1], the pest or weed control at 500 ppm was less than 50%.
For the compound `FC(F)(F)C(COCc1cccc(Oc2ccccc2)c1)c1ccc(Cl)cc1` (centres unmarked) [Compound 16, 1,1,1-Trifluoro-2-(4-chlorophenyl)-3-(3-phenoxybenzyloxy)propane], the mortality at 100 ppm in the assay on Heliothis virescens was 80 to 100%; in the assay with Tetranychus urticae it was less than 50%; with Diabrotica balteata, 80 to 100%; in the assay with Nilaparvata lugens it was 80 to 100%; with Blattella germanica, 80 to 100%; in the assay on Myzus persicae, 80 to 100%. Also, the mortality at 100 ppm in the assay with Musca domestica [2] was in the range of 80 to 100%. In the assay with Musca domestica [1], the pest or weed control at 100 ppm was in the range of 80 to 100%.
For `CCOc1ccc(C(COCc2ccc(F)c(Oc3ccccc3)c2)C(F)(F)F)cc1` (centres unmarked) [Compound 33, 1,1,1-Trifluoro-2-(4-ethoxyphenyl)-3-(3-phenoxy-4-fluorobenzyloxy)propane], the mortality at 500 ppm with Heliothis virescens, with Tetranychus urticae, with Diabrotica balteata, in the assay on Nilaparvata lugens, in the assay on Blattella germanica and with Myzus persicae was 80 to 100% throughout. Besides, the mortality at 500 ppm with Musca domestica [2] was in the range of 80 to 100%. Further, the pest or weed control at 500 ppm with Musca domestica [1] was 80 to 100%.
In the case of `CCOc1ccc(C(COCc2ccc(F)c(Oc3ccc(Cl)cc3)c2)C(F)(F)F)cc1` (centres unmarked) [Compound 5, 1,1,1-Trifluoro-2-(4-ethoxyphenyl)-3-(3-(4-chlorophenoxy)4-fluorobenzyloxy)propane], the mortality at 500 ppm in the assay on Heliothis virescens was 80 to 100%; with Tetranychus urticae it was 50 to 79%; with Diabrotica balteata, 80 to 100%; in the assay on Nilaparvata lugens it was 80 to 100%; in the assay on Blattella germanica, 80 to 100%; with Myzus persicae, 80 to 100%. The mortality at 500 ppm with Musca domestica [2] fell in the range of 80 to 100%. Also, the pest or weed control at 500 ppm in the assay on Musca domestica [1] lay in the range of 80 to 100%.
As to `COc1ccc(C(COCc2cccc(Oc3ccccc3)c2)C(F)(F)F)cc1` (centres unmarked) [Compound 30, 1,1,1-Trifluoro-2-(4-methoxyphenyl)-3-(3-phenoxybenzyloxy)propane], the mortality at 500 ppm was 80 to 100% with Heliothis virescens; less than 50% in the assay on Tetranychus urticae; 80 to 100% in the assay on Diabrotica balteata; 80 to 100% in the assay with Nilaparvata lugens; 80 to 100% with Blattella germanica; less than 50% with Myzus persicae. For the same compound, the mortality at 500 ppm with Musca domestica [2] lay within 80 to 100%. For the same compound, in the assay on Musca domestica [1], the pest or weed control at 500 ppm was in the range of 80 to 100%.
Regarding `CCOc1ccc(C(COCc2cccc(Oc3ccccc3)c2)C(F)(F)F)cc1` (centres unmarked) [Compound 1, 1,1,1-trifluoro-2-(4-ethoxyphenyl)-3-(3-phenoxybenzyloxy)propane], the mortality at 500 ppm in the assay on Heliothis virescens, in the assay with Tetranychus urticae, with Diabrotica balteata, with Nilaparvata lugens, in the assay on Blattella germanica and with Myzus persicae was 80 to 100% each time. In the assay on Musca domestica [2], the mortality at 500 ppm lay in the range of 80 to 100%. Further, the pest or weed control at 500 ppm with Musca domestica [1] lay within 80 to 100%.
Consider `FC(F)(F)Oc1ccc(C(COCc2cccc(Oc3ccc(Cl)cc3)c2)C(F)(F)F)cc1` (centres unmarked) [Compound 26, 1,1,1-Trifluoro-2-(4-trifluoromethoxyphenyl)-3-(3-(4-chlorophenoxy)benzyloxy)propane], for which the mortality at 100 ppm in the assay with Heliothis virescens was 80 to 100%; in the assay on Tetranychus urticae, 80 to 100%; with Diabrotica balteata it was 80 to 100%; in the assay with Nilaparvata lugens it was 80 to 100%; in the assay with Blattella germanica, 80 to 100%; with Myzus persicae, 50 to 79%. Further, the mortality at 100 ppm in the assay on Musca domestica [2] fell in the range of 80 to 100%. Besides, the pest or weed control at 100 ppm in the assay on Musca domestica [1] was 80 to 100%.
For the compound `CCOc1ccc(C(COCc2cccc(-c3ccccc3)c2C)C(F)(F)F)cc1` (centres unmarked) [Compound 7, 1,1,1-Trifluoro-2-(4-ethoxyphenyl)-3-(2-methyl-3-phenylbenzyloxy)propane], the mortality at 500 ppm in the assay on Heliothis virescens is less than 50%; with Tetranychus urticae, 80 to 100%; with Diabrotica balteata it was 80 to 100%; with Nilaparvata lugens, 80 to 100%; in the assay with Blattella germanica, 80 to 100%; in the assay on Myzus persicae, 80 to 100%. Also, in the assay with Musca domestica [2], the mortality at 500 ppm is 80 to 100%. In addition, in the assay with Musca domestica [1], the pest or weed control at 500 ppm was 80 to 100%.
